Here are results for 3 molecules from article PMC11505038, “Kalata B1 Enhances Temozolomide Toxicity to Glioblastoma Cells” (Biomedicines, 2024).

The subject of one data set is interleukin-2 (IL-2). To be noted: cited from earlier work. An excerpt:
Although a mechanistic evaluation of Kalata B1 bioactivity was beyond the scope of this research, a brief discussion of the previous mechanistic studies is justified. For instance, Henriques and colleagues provided supporting evidence that cyclotides can target phosphatidylethanolamine (PE)-enriched phospholipids and penetrate the cell via both endocytosis and membrane translocation.

The subject of data set [1] is anaplastic large cell lymphoma (ALCL). To be noted: mouse model of anaplastic large cell lymphoma; cited from earlier work. The source says: (§1) The development of an in vivo mouse model is vital, yet it requires expertise, significant finances, and large quantities of the target cyclotide. […] A mouse model of anaplastic large cell lymphoma (ALCL) was developed, and the Kalata B1 mutant, named [T20K] Kalata B1, decreased tumor weight and increased ...

A further data set concerns glioblastoma cells. To be noted: cytotoxicity; ref Our previous research; cited from earlier work.
A further data set deals with U-87 MG cells. The note with it: U-87 MG; cited from earlier work.
For data set [2], the system named is primary human brain endothelial cells. The note with it: SYTOX green assay; cited from earlier work. The source says:
Challenges commonly associated with treating cancer can include low drug uptake across the cellular lipid bilayer, the activity of pumps, such as p-glycoprotein, that efflux drugs out of the cell, and the impenetrability of the blood–brain barrier. Our previous research provided supporting evidence that cyclotides such as CyO2 can act as adjuvants in drug-resistant breast cancer cells, whereby cyclotides sensitize human breast adenocarcinoma (MCF-7) and drug-resistant human breast adenocarcinoma (MCF-7/ADR) cells to the FDA-approved anti-cancer drug, doxorubicin. In that case, one ...

A further data set has as its system U-251 glioblastoma cells. The note with it: MTT; cited from earlier work.
The test system of another data set is mice. The note with it: cited from earlier work.
Text: as §1

Another data set deals with U-87 glioblastoma cells. The note with it: MTT; cited from earlier work.
Data set [3] has as its system U-87 MG human glioblastoma cells. In words: cells. The note with it: read-out: IC50 (μM) ± S.D.; U-87 MG, MTT, 72 h, 6000 cells/well, cyclotides 0.1-10 μM, TMZ 0.5-5000 μM, best fit nonlinear regression, triplicate wells, n = 3. Here is the method: (§2) SH-SY5Y human neuroblastoma cells (population doubling (PD) 20−24), T-98G, and U-87 MG human glioblastoma cells were removed from cryogenic storage, thawed rapidly in a water bath (37 °C) and reconstituted in 75 cm^2 flasks. For SH-SY5Y, the following media were used: Dulbecco’s modified Eagle’s medium/Nutrient F12 Ham (Sigma-Aldrich, Cat. No. D8437) containing 10% heat-inactivated fetal bovine serum, 4 mM L-glutamine, 100 U/mL penicillin, and 100 μg/mL streptomycin. For U-87 MG and T-98G Eagle’s minimal essential medium (ATCC: The Global Bioresource Center, Cat. No. ATCC 30-2003), containing 10% heat-inactivated fetal bovine serum, 4 mM L-glutamine, 100 U/mL penicillin, and 100 μg/mL streptomycin were used.
(§3) Cells were incubated at 37 °C in a humidified atmosphere of 5% CO2 and 95% air until recovered and ready for passaging (approximately 4 days). At between 80% and 90% confluence, the cells were trypsinized with warm (37 °C) sterile 0.5% Trypsin-EDTA (Thermo Fisher, Cat. No. 15400054) and passaged into 175 cm^2 flasks, where they were left to multiply until they reached 80−90% confluence. To plate cells: cultures were trypsinized, resuspended in 20 mL sterile PBS, counted using a cell counter (Olympus cell counter model R1), and plated in 96-well plates at an optimal density of 6000 cells/well in the designated culture media. The cells were left to adhere overnight before treatment the following day, when the culture medium was removed and replaced with the treatment medium. All incubations were conducted in triplicate wells and repeated at least three times (n = 3).
(§4) To calculate TMZ IC50 values in each cell line, TMZ was dissolved in DMSO at a stock concentration of 103 mM, which was then diluted into culture medium on the day of use, with the DMSO final concentration always less than 0.1%. The following concentrations of TMZ were used in the experiments: 0.5, 5, 50, 500, 2500, 5000 μM. The media were sterilized for each treatment media with a 0.22 μm filter before they were added to cell cultures. To determine the IC50 values for each cyclotide in each cell type, cyclotides were dissolved into 10% DMSO and then dilutions used to screen cyclotides with a final DMSO concentration of less than 0.1% The following concentrations of cyclotides were used: 0.1, 1, 5, 10 μM. For co-exposure experiments, a simultaneous exposure of cyclotide and TMZ at each respective dose was added to cell cultures (100 μL final volume per well).
(§5) In accordance with the methods developed by Mosmann and colleagues, the MTT assay was conducted using the Roche cell proliferation kit (Cat. No. 11465007001). Briefly, cells that are active can cleave MTT. The MTT is originally a yellow tetrazolium salt that undergoes a colorimetric change to purple formazan crystals, and the change in absorbance can be measured as an indicator of cell viability/proliferation. For these experiments, cells were plated into 96-well flat-bottom plates, as described in the cell culture above. […] To align with our previous work, experiments were conducted with a 72 h time frame for cytotoxicity evaluation.
(§6) After a 72 h incubation period, plates were removed from the incubator and 10 µL of MTT was added to each well. The plates were returned to the incubator for an additional 4 h, after which 100 µL of a solubilization solution was added to each well. The plates were returned to incubation overnight, and the next day absorbances were read at 570 nm on a Molecular Devices FlexStation 3 using SoftMax Pro Microplate Data Acquisition and Analysis Software (version 7.0.2).

Data set [4] has as its system T-98G human glioblastoma cells. Briefly: cells. The note with it: read-out: IC50 (μM) ± S.D.; T-98G, MTT, 72 h, 6000 cells/well, best fit nonlinear regression, triplicate wells, n = 3. Here is the method: as §2, §3, §4, §5, §6
The subject of data set [5] is U-87 MG glioblastoma cells. Briefly: MTT co-exposure of synthetic Kalata B1 and TMZ in U-87 MG cells. Format: cell-based, human. To be noted: TMZ 100 µM + synthetic Kalata B1 0.5 µM, MTT 72 h, ANOVA/Tukey. Here is the method:
To calculate TMZ IC50 values in each cell line, TMZ was dissolved in DMSO at a stock concentration of 103 mM, which was then diluted into culture medium on the day of use, with the DMSO final concentration always less than 0.1%. The following concentrations of TMZ were used in the experiments: 0.5, 5, 50, 500, 2500, 5000 μM. The media were sterilized for each treatment media with a 0.22 μm filter before they were added to cell cultures. […]
In accordance with the methods developed by Mosmann and colleagues, the MTT assay was conducted using the Roche cell proliferation kit (Cat. No. 11465007001). […] The MTT is originally a yellow tetrazolium salt that undergoes a colorimetric change to purple formazan crystals, and the change in absorbance can be measured as an indicator of cell viability/proliferation. […]
Figure 8 Synthetic Kalata B1 increased TMZ-induced cell death in U-87 MG glioblastoma cultures. To determine if synthetic Kalata B1 (K) enhances TMZ (T)-induced cell death in U-87 MG cells, MTT was measured after incubating the cell cultures with concentrations of K (0.5, 1.0, 2.0, and 4.0 μM) and T (100, 200, 400, and 800 μM) both alone and when co-exposed to synthetic Kalata B1 and TMZ as illustrated in panels (A–M). […] Cell viability was measured using MTT and expressed as a percentage of control cultures (culture medium with DMSO only). […]

Data set [6] can be described thus: Human serum stability assay (UPLC-MS). To be noted: 37 °C. The method, then: Established protocols were used to analyze peptide stability in human serum isolated from male AB plasma (Sigma-Aldrich). Briefly, thawed plasma was centrifuged for 10 min at 15,000× g to concentrate lipids. The supernatant was carefully removed with a Pasteur pipette and incubated for 15 min at 37 °C, 5% CO2. […] Controls were synthetic Kalata B1 or TMZ in PBS that were incubated in parallel with human serum test compounds. Serum proteins were denatured with urea (final concentration of 3M) at 4 °C for 10 min., at each time point. Afterwards, trichloroacetic acid (7% final v/v) was added for 10 min to precipitate the proteins. Each sample was centrifuged for 10 min at 15,000× g; the supernatant was removed an evaluated in triplicate using UPLC-MS.
We conducted peptide stability assays in human serum isolated from male AB plasma and then analyzed with UPLC-MS. Synthetic Kalata B1 and TMZ were incubated with human serum and the portion of the peptide remaining was quantified by calculating the area of the respective elution peak in UPLC-MS, compared to the control.
Percentage of Kalata B1 and TMZ remaining upon incubation with human serum. The portion of serum-treated peptide remaining was determined by calculating the area of the respective elution peak in UPLC-MS and comparing it with the control without incubation. Data points are means ± SEM.

As to “[T20K] Kalata B1: a Kalata B1 mutant (cyclo(GLPVCGETCVGGTCNTPGCKCSWPVCTRN); disulfide (positions not given here); ends not checked; also: disulfides, places not given here; UniProt P56254 89-117, looked up, variant T20K)”, the “Effect on IL-2 expression, IL-2 cytokine secretion and IL-2 gene expression” value in the data set on interleukin-2 (IL-2) is recorded as “could decrease”. Also, in data set [1], the “Anti-tumor effect in ALCL mouse model” value is “decreased tumor weight and increased apoptosis”.

The term IC50 denotes the concentration at which inhibition is half-maximal. Regarding Cycloviolacin O2 [CyO2], the results for the IC50 in the data set with glioblastoma cells, in the data set with U-251 glioblastoma cells and with U-87 glioblastoma cells were 4500 nM, 790 nM and 450 nM, respectively. For the same molecule, in the data set on U-87 MG cells, the “Fold less TMZ required for significant cell death on co-exposure with the cyclotide” value is on record as 8 fold. In addition, the Membrane disruption result in data set [2] is “did not produce significant membrane disruption”. In the data set on mice (mice treated with 1.5 mg/kg in tumor mouse models), the “In vivo toxicity at 1.5 mg/kg” value is on record as “no signs of discomfort”. Moreover, the “In vivo toxicity, single injection at 2 mg/kg” value in the data set on mice (mice, single injection 2 mg/kg) is on record as “lethal”.

As to `CC(C)C[C@@H]1NC(=O)CNC(=O)[C@H](CC(N)=O)NC(=O)[C@H](CCCNC(=N)N)NC(=O)[C@H]([C@@H](C)O)NC(=O)[C@@H]2CSSC[C@@H]3NC(=O)[C@H]([C@@H](C)O)NC(=O)CNC(=O)CNC(=O)[C@H](C(C)C)NC(=O)[C@@H]4CSSC[C@H](NC(=O)[C@H]([C@@H](C)O)NC(=O)[C@H](CSSC[C@H](NC(=O)[C@H](C(C)C)NC(=O)[C@@H]5CCCN5C1=O)C(=O)NCC(=O)N[C@@H](CCC(=O)O)C(=O)N[C@@H]([C@@H](C)O)C(=O)N4)NC(=O)CNC(=O)[C@@H]1CCCN1C(=O)[C@H]([C@@H](C)O)NC(=O)[C@H](CC(N)=O)NC3=O)C(=O)N[C@@H](CO)C(=O)N[C@@H](Cc1c[nH]c3ccccc13)C(=O)N1CCC[C@H]1C(=O)N[C@@H](C(C)C)C(=O)N2` [Kalata B1 (synthetic), Kalata B1], the IC50 in data set [3] turned out to be 5.4 ± 1.06 µM; in [4] it was 2.6 ± 0.24 µM. Further, in data set [5], the “Fold lower TMZ concentration than TMZ IC50 still giving significant cytotoxicity on co-exposure” value is on record as 16 fold. The “Stability in human serum (in words)” value in data set [6] (data points of 3 h, 8 h and 24 h, human serum from male AB plasma, 300 µM stock diluted 10 times, UPLC-MS peak area vs control, triplicate, listed as synthetic Kalata B1) was “remains stable”. For the same molecule, in data set [6] (human serum isolated from male AB plasma, UPLC-MS), the “Time for which the peptide remains stable in human serum” value is given as “at least 24 h”.
